# Assay results from paper PMC9569529, “Safe and Efficient Sigma1 Ligand: A Potential Drug Candidate for Multiple Sclerosis” (International Journal of Molecular Sciences, 2022).
# Columns and labels:
# HepG2 = test: Cytotoxicity analysis in HepG2 cells; format: cell-based, human; settings: % at 10 µM
# Experimental: Cytotoxicity analysis was performed by Eurofins Cerep (Poitiers, France) according to [74]. Compound 7i was evaluated at 10 µM in the HepG2 cell line. Cell number, nuclear size, mitochondrial membrane potential, intracellular free calcium and membrane permeability were analyzed. % inhibition or % increase were calculated.
# [1] = tested on: dizocilpine-induced learning deficits; test: Dizocilpine-induced learning deficits, step-through passive avoidance; format: in vivo, male Swiss mice
# Experimental: The activity of compound 7i was evaluated in regard to its ability to reverse dizocilpine-induced learning deficits. Two behavioral tests were performed by Amylgen (Montferrier-sur-Lez, France) on male Swiss mice (aged 6–9 weeks). All compounds (7i and controls) were intraperitoneally injected.
# Animals were tested for spontaneous alternation performance in the Y-maze, an index of spatial working memory. Made of grey polyvinylchloride, the Y-maze has an arm which is 40 cm long, 13 cm high and 3 cm wide at the bottom and 10 cm wide at the top, converging at an equal angle. Each mouse was placed at the end of one arm and allowed to move freely through the maze during an 8-min session. The series of arm entries, including possible returns into the same arm, were checked visually. An alternation was defined as entries into all three arms on consecutive occasions. The number of maximum alternations was therefore the total number of arm entries minus two, and the percentage of alternation was calculated as: (actual alternations/maximum alternations) × 100. Parameters included the percentage of alternation (memory index) and the total number of arm entries (exploration index). Animals showing extreme behavior (alternation < 20% or >90% or number of arm entries < 10) are usually discarded from the calculations. […] Step-through latency (the latency in time spent to enter the dark compartment) and the number of vocalizations were recorded. […] Step-through latency was recorded up to 300 s. When either the mouse entered the dark compartment or 300 s had elapsed (they were therefore manually placed in it), escape latency (latency to exit from the dark compartment) was recorded with a value of up to 300 s. […]
# QT interval = test: ECG QT interval analysis under isoflurane anesthesia; settings: for QT Interval Basal / QT Interval 3 min / QT Interval 6 min / QT Interval 10 min / QT Interval 20 min / QT Interval 30 min: in ms (unit assumed); for QT Interval 3 min: 3 min after injection; for QT Interval 6 min: 6 min after injection; for QT Interval 10 min: 10 min after injection; for QT Interval 20 min: 20 min after injection; for QT Interval 30 min: 30 min after injection
# Experimental: Four electrodes were inserted subcutaneously in the mouse limbs. Electrical signals were recorded with a Powerlab (Ad instruments) and analyzed with LabChart Pro software (v8.1.19).
# Heart rate and PR, QRS and QT intervals were measured as described in Supplementary Figure S3.
# CYP3A4 = test: CYP induction in human hepatocytes (mRNA, qPCR); format: in vitro ADME; settings: 10 µM
# Experimental: (§1) The compound was classically evaluated at 10 µM for all the ADME analyses. Bidirectional permeability (apical A to basolateral B pH 6.5/7.4 and basolateral B to apical A pH 7.4/6.5) was assessed in the epithelial colorectal adenocarcinoma cell line (Caco-2 cell line). Results were expressed as × 10^−6cm/s (Papp) and as % recovery. Efflux ratio, i.e., Papp(B-A)/Papp(A-B), was calculated. Plasma protein binding was analyzed by HPLC-MS/MS after 4-h incubation at 37 °C, as described by Banker et al.. Concentration was evaluated by LC/MS-MS. CYP inhibition was performed in human liver microsomes as described in [61]. Analysis of the respective metabolites. was performed by HPLC-MS/MS. Transporter inhibition analysis was also performed in overexpressing cell lines. Respective metabolites for each specific transporter substrate were analyzed by fluorometry or scintillation counting and % inhibition of control values were calculated. P-glycoprotein transporter substrate assessment was performed by bidirectional permeability analysis (apical A to basolateral B pH 7.4/7.4 and basolateral B to apical A pH 7.4/7.4) in the Caco-2 cell line with and without verapamil, as described in [59]. Results were expressed as ×10^−6 cm/s (Papp) and as % recovery. The efflux ratio, i.e., Papp(B-A)/Papp(A-B), was calculated. CYP450 induction characterization was performed on human hepatocytes. The mRNA levels of 7 different CYPs were analyzed by qPCR, as described in [72]. The compound was evaluated at 1, 10 and 100 µM. Fold-induction values were determined and compared to cut-off values, as defined for each CYP isozyme in each hepatocyte lot.
# CYP1A2 = test: CYP induction in human hepatocytes (mRNA, qPCR); format: in vitro ADME; settings: 10 µM
# Experimental: as §1
# CYP2B6 = test: CYP induction in human hepatocytes (mRNA, qPCR); format: in vitro ADME; settings: 10 µM
# Experimental: as §1
# S. typhimurium TA100 = settings: 7i 40 µg/plate
smiles,measurement,setting,value
CN(CCCNC(=O)c1ccc(Cl)cc1)Cc1ccccc1 [compound 7i],HepG2 Cell number,HepG2,−3%
same,HepG2 Intracell free calcium,HepG2,0%
same,HepG2 Membrane permeability,HepG2,0%
same,HepG2 Mitochondrial membrane potential,HepG2,5%
same,HepG2 Nuclear size,HepG2,9%
same,"dizocilpine-induced learning deficits, passive avoidance","[1]; 0.1 and 0.5 mg/kg i.p., dizocilpine 0.15 mg/kg",significantly attenuated
same,beneficial effect in passive avoidance with NE-100 treatment,[1]; plus NE-100 at 3 mg/kg i.p.,prevented
same,QT Interval Basal,QT interval; 0.5 mg/kg i.p. group,49 ± 3
same,QT Interval 3 min,QT interval; 0.5 mg/kg i.p.,48 ± 4
same,QT Interval 6 min,QT interval; 0.5 mg/kg i.p.,46 ± 4
same,QT Interval 10 min,QT interval; 0.5 mg/kg i.p.,53 ± 3
same,QT Interval 20 min,QT interval; 0.5 mg/kg i.p.,59 ± 4
same,QT Interval 30 min,QT interval; 0.5 mg/kg i.p.,58 ± 3
same,QT Interval Basal,QT interval; 1.0 mg/kg i.p. group,48 ± 1
same,QT Interval 3 min,QT interval; 1.0 mg/kg i.p.,45 ± 2
same,QT Interval 6 min,QT interval; 1.0 mg/kg i.p.,46 ± 2
same,QT Interval 10 min,QT interval; 1.0 mg/kg i.p.,>49 ± 1
same,QT Interval Basal,QT interval; 10.0 mg/kg i.p. group,46 ± 1
same,QT Interval 3 min,QT interval; 10.0 mg/kg i.p.,43 ± 1
same,QT Interval 6 min,QT interval; 10.0 mg/kg i.p.,45 ± 3
same,QT Interval 10 min,QT interval; 10.0 mg/kg i.p.,49 ± 2
same,QT Interval 20 min,QT interval; 10.0 mg/kg i.p.,52 ± 1
same,QT Interval 30 min,QT interval; 10.0 mg/kg i.p.,54 ± 1
same,"cardiac repolarization (QT interval), conclusion",QT interval; 0.5 to 10 mg/kg i.p.,no alteration in cardiac repolarization
same,"heart rate, PR and QRS duration",QT interval; 0.5 to 10 mg/kg i.p.,did not alter
same,pro-arrhythmic effect,QT interval; 0.5 to 10 mg/kg i.p.,does not induce a pro-arrhythmic effect
same,"modulation of CYP3A4 (induction, conclusion)",CYP3A4; three donors,No modulation
same,"CYPs induction CYP3A4, donor #1","CYP3A4; donor #1, cut-off (4)",4.2%
same,"CYPs induction CYP3A4, donor #2","CYP3A4; donor #2, cut-off (6)",1.6%
same,"CYPs induction CYP3A4, donor #3","CYP3A4; donor #3, cut-off (3)",0.8%
same,"modulation of CYP1A2 (induction, conclusion)",CYP1A2; three donors,No modulation
same,"CYPs induction CYP1A2, donor #1","CYP1A2; donor #1, cut-off (2)",2.7%
same,"CYPs induction CYP1A2, donor #2","CYP1A2; donor #2, cut-off (5)",1.5%
same,"CYPs induction CYP1A2, donor #3","CYP1A2; donor #3, cut-off (2)",1.9%
same,"modulation of CYP2B6 (induction, conclusion)",CYP2B6; three donors,No modulation
same,"CYPs induction CYP2B6, donor #1","CYP2B6; donor #1, cut-off (3)",4.1%
same,"CYPs induction CYP2B6, donor #2","CYP2B6; donor #2, cut-off (4)",4.1%
same,"CYPs induction CYP2B6, donor #3","CYP2B6; donor #3, cut-off (2)",4.2%
same,Ames TA100 +S9 (Mean revertants/well per title),"S. typhimurium TA100; +S9, positive control 2-anthramine 0.5",0.9
same,Ames TA100 −S9 (Mean revertants/well per title),"S. typhimurium TA100; −S9, positive control MNNG 0.25",0.9
